Patent US20010005720A1, “METHOD OF TREATING CHRONIC P[…] SCARRING DISEASES” (U.S.A. AS REPRESENTED BY THE SECRETARY DEPARTMENT OF HEALTH …, priority 1995, published 2001)

Columns and labels:
[1] = system: normal mesangial cells; experiment: DNA synthesis by [3H]thymidine incorporation in normal mesangial cells; assay type: cell-based; conditions: day one (24 hours); PPS 5-100 μg/ml; 20% fetal bovine serum
Experimental: (§1) Normal mesangial cells (8) were plated in basal medium plus 20% fetal bovine serum (Gibco, Grand Island, N.Y.) in 24-well plates (Nunc, PGC Scientific Corp., Gaithersburg, Md.) at a density of 2−2.5×10^4 cells/well. At 24 hours the medium was discarded, cells were washed twice with PBS and incubated for 24-72 h in serum-free medium with 0.1% bovine serum albumin (RIA grade, Sicjma). The medium was replaced with fresh basal medium plus 20% fetal bovine serum with or without 5-100 μg/ml of PPS or compared to standard heparin (100 μg/ml). Cells of duplicate wells were trypsinized and counted in an Elzone® cell counter (Particle Data Inc., Elmhurst, Ill.) at days +3 and +5. In parallel wells, thymidine incorporation was determined by adding 1 μCi/well of [^3H] thymidine ([methyl-^3H] thymidine); 2.0 Ci/mM; DuPont NEN, Boston, Mass.). Counts were determined at day 1 or at day 3.

[2] = system: normal mesangial cells; experiment: Cell growth (cell counts) in normal mesangial cells; assay type: cell-based
Experimental: as §1

[3] = system: normal mesangial cell layers; experiment: mRNA levels of selected molecules in normal mesangial cell layers exposed to PPS (reverse transcription); assay type: cell-based; conditions: PPS 100 μg/ml; day 1 compared with days 3 and 5
Source text: The control was β-actin, which was unchanged, consistent with the absence of proliferation in the treated cells.

[4] = system: GH transgenic mice; experiment: GH transgenic mice, oral PPS sodium in drinking water; glomerular collagen by competitive PCR; assay type: in vivo, mouse; conditions: about 100 mg/kg, 10-12 weeks
Experimental: Six GH mice were treated for 10-12 weeks with oral PPS sodium (Elmiron®, Baker Norton Pharmaceuticals, Inc.) in their drinking water and six age-matched GH mice received tap water for the same duration. The amount of PPS sodium in the drinking water was about 100 mg/kg of animal body weight.
Glomeruli were isolated by microdissection in the presence of RNase inhibitors. The left kidney was perfused with saline followed by a collagenase solution containing soluble RNase inhibitors. The lower pole was removed prior to collagenase perfusion and snap frozen on dry ice for zymography. […]
Primers for mouse α1IV and α1I collagen, α smooth muscle cell actin, β-actin, laminin B1, tenascin, 92 kDa metalloproteinase and 72 kDa metalloproteinase mRNAs, and for bovine growth hormone genomic DNA, were synthesized on a PCR-Mate (Applied Biosystems, Foster City, Calif.). […] Primer specificity for mRNA was determined by omitting the reverse transcriptase enzyme. […] This permitted a rapid, non-quantitative assessment of mRNA levels. Thereafter, competitive PCR assays were utilized to measure α1IV collagen (and the ratio of α1IV collagen to GAPDH enzyme was calculated to normalize the data between animals), PDGF-B, α smooth muscle cell actin, β-actin, and laminin B1 cDNAs by constructing a cDNA mutant for each molecule, with a small internal deletion or a new restriction enzyme site. […]

[5] = system: Watanabe rabbits; experiment: Watanabe rabbits Study A: subcutaneous PPS, morphometry of aortic lesions; assay type: in vivo, rabbit
Experimental: Twelve Watanabe rabbits were divided into two groups of six each (Group A and Group B) and fed a high cholesterol diet (0.5% cholesterol). The animals of Group A were treated daily with normal saline subcutaneously, while the animals of Group B were treated daily with 10 mg/kg of PPS sodium (Elmiron®) subcutaneously.
Four of the PPS-treated animals (Group B) died prior to completion of the study, one on day 22 and three between day 80 and day 86. On day 89, the animals of Group A and the two remaining animals of Group B were euthanized and necropsied and their tissues evaluated, particularly sections from different major branches of the aorta.

[6] = system: Watanabe rabbits; experiment: Watanabe rabbits Study B: oral PPS in drinking water, aortic intima/media histology; assay type: in vivo, rabbit; conditions: oral about 30 mg/kg/day in drinking water
Experimental: Twenty Watanabe rabbits were divided into four groups of five each, Groups A through D. All of the rabbits were fed the same high cholesterol diet (0.5% cholesterol). The animals of Groups A and B were given tap water to drink, while the animals of Groups C and D were given tap water containing 0.5 mg/mL of PPS sodium (Elmiron®). Based on observations of pre-study water consumption by the animals, the total daily dose of PPS sodium consumed by each animal in the treatment groups was about 30 mg/kg.
The animals of Groups A and C were euthanized and necropsied on day 50 of the study and their aortae examined.
The rabbits of Groups B and D were euthanized and necropsied on day 64 of the study. The aortae of these groups were examined histologically and the respective cross-sectional areas of the intimal and medial layers in various aortal branches were measured.

[7] = Wardle 1992; cited from earlier work
[8] = system: smooth muscle cell; conditions: Paul et al. 1987; Wardle; cited from earlier work
[9] = Paul et al. 1987; Wardle; cited from earlier work
[10] = 10 mg/kg/day s.c., day 89, 0.5% cholesterol diet
[11] = PPS vs control, 10 mg/kg/day s.c., day 89
[12] = all aortal cross-sections examined, 10 mg/kg/day s.c.

Substance: Pentosan polysulfate [PPS]
- concentration at which the maximum dose-response plateaued (DNA synthesis, tritiated thymidine incorporation) [1]: 50 µg/mL
- potency relative to native heparin on a molar basis (cell growth inhibition) ([2]; PPS 100 μg/ml vs heparin 100 μg/ml, three and five days): roughly twice
- concentration of maximum inhibitory response (cell number) ([2]; day three, PPS 5-100 μg/ml, 20% fetal bovine serum): 25 µg/mL
- 92 kDa enzyme activity increase [3]: more than 50%
- TGF-β mRNA reduction [3]: 50%
- type I collagen mRNA [3]: substantially decreased
- type IV collagen mRNA [3]: no changes
- β-actin mRNA (control) [3]: unchanged
- mean type IV collagen/GAPDH ratio in glomeruli relative to untreated (control) group [4]: less than half
- scarring-type collagen present in glomeruli vs untreated animals (confirmed by histology and immunofluorescent microscopy) [4]: considerably less
- treated animals that died prior to completion of the study ([5]; 10 mg/kg daily subcutaneously, group of six, one on day 22, three between day 80 and 86, high cholesterol diet): Four
- Plaque area, Abdominal Aorta [5, 10]: 0.04 cm^2
- Plaque area, Ascending Aorta [5, 10]: 0.59 cm^2
- Smooth Muscle Layer area, Abdominal Aorta [5, 10]: 0.303 cm^2
- Smooth Muscle Layer area, Ascending Aorta [5, 10]: 0.243 cm^2
- Smooth Muscle Layer area, Thoracic Aorta [5, 10]: 0.334 cm^2
- Smooth Muscle/Plaque, Abdominal Aorta [5, 10]: 7.58
- Smooth Muscle/Plaque, Ascending Aorta [5, 10]: 4.12
- Smooth Muscle/Plaque, Thoracic Aorta [5, 10]: 1.184
- plaque in cross-section of abdominal aorta (FIG. 11 photograph) ([5]; 10 mg/kg/day s.c., high cholesterol diet): almost no sign of plaque
- Fold decrease in Plaque Size, Abdominal Aorta [5, 11]: 10.2×
- Fold decrease in Plaque Size, Ascending Aorta [5, 11]: 6.8×
- Fold decrease in Plaque Size, Thoracic Aorta [5, 11]: 2.5×
- plaque deposits in comparison with control rabbits [5, 12]: much smaller
- ratio of smooth muscle layer to plaque, times higher than control rabbits [5, 12]: ≤ 6.8 times
- atherosclerotic plaque development in intima, visual, vs control ([6]; day 50, Group C vs Group A): less atherosclerotic plaque development
- mean intimal cross-sectional area in each aortal branch vs untreated ([6]; day 64, Group D vs Group B): substantially less
- ratio of intima to medial areas in every aortal branch vs untreated ([6]; day 64, Group D vs Group B): lower
- anticoagulant potency relative to heparin [7]: about one-fifteenth
- partial thromboplastin time [7]: prolongs
- smooth muscle cell proliferation [8]: inhibits
- hyperlipidemia [9]: decreases
